US20160015034A1, “Co-Crystals of Pyrimethanil and Selected Dithiine Tetracarboximide” (BASF SE, priority 2013, published 2016)
≈ marks a conversion by molar mass, not a printed value.

Columns and labels:
[1] = Water solubility by slurry equilibration and HPLC; type: physicochemical; conditions: pH 7, aqueous buffer, thermodynamic from solid
Procedure: Water Solubility of the Co-Crystals
The determination of the amount of the actives in solution was performed on HPLC ACQUITY (Water) system, equipped with PDA—230 nm UV detector and Sample Manager auto-injector.
Waters' Enpower software was used to record the chromatograms and to calculate the chromatographic parameters. Gradient elution (Acetonitrile—0.1% H3PO4) was achieved using C18 column, 50×2.1 mm, 1.7 μm BEH. Injection volume was set 1 μL by auto injector. The analysis were performed with rate flux of 0.4 ml/min. UV detection was performed at 245 nm. Peak identities were confirmed by spectrum and retention time comparison. All the analyses were performed at room temperature. All the analyzed solutions were prepared by slurry equilibration experiments. Particularly, water suspensions (KH2PO4/NaOH buffer having pH value of 7) of dithiine, pyrimethanil and the co-crystals were slurried for 1 hour, according with the maximum value of the intrinsic dissolution profile of the pure active. After 60 minutes small samples of about 1.0 ml were recovered with a syringe and filtered through a 0.1 micrometer PVDF Millipore filtration unit. Both solid phase and liquid phase were analyzed by XRPD and HPLC, respectively.

[2] = Isothermal TGA volatility study; type: physicochemical; conditions: isothermal TGA at 100 C., nitrogen flow, weight loss monitored for 12 hours
Procedure: Isothermal Analysis of the Co-Crystals
TG/DTA measurement was carried out on a Seiko TG/DTA 7200 instrument. An open aluminium pan was used and the measurement was carried out under nitrogen flow with a sample weight of 5 to 10 mg. The isothermal TGA for volatility studies were performed at 100 C. and the weight loss was monitored for 12 hours.

SMILES | solubility at 1 h [1] | TGA Volatility (% weight loss per minute) [2]
Cn1c(=O)c2sc3c(=O)n(C)c(=O)c3sc2c1=O | 2 µg/mL (≈ 7.08 µM) | 5.45 × 10^−3 % weight loss per minute
Cc1cc(C)nc(Nc2ccccc2)n1 [pyrimethanil] | 58 µg/mL (≈ 291 µM) | 1.20 × 10^−2 % weight loss per minute
